Experimental data: patent US20230086683A1, “PLATELET STORAGE METHODS AND COMPOSITIONS” (Platefuse, Inc., priority 2020, published 2023)

System: washed human platelet suspension
Assay: Inhibition of collagen-induced platelet aggregation (Lumi-Aggregometer)
Assay type: cell-based
Settings: washed human platelets, 37° C., 2 min preincubation, collagen 1-4 μg/ml, read out at 6 min after induction, read-out: IC50 (concentration at which 50% aggregation is reached), platelet aggregation inhibitors
Protocol: Platelet shape change in washed platelets was monitored using an aggregometer and the decrease in light transmittance following addition of an agonist (Huzoor et al., 1993). For the purpose of this analysis, collagen was used as the agonist. Briefly, a washed human platelet suspension was incubated at 37° C. in a Lumi-Aggregometer (Chrono-Log Corporation) with stirring at 900 rpm, followed by the addition of dimethylsulfoxide (DMSO) as a control vehicle, or various compounds dissolved in DMSO. After incubating the samples with the respective compound for 2 minutes, platelet aggregation was induced by, adding collagen (1-4 μg/ml) and the relative aggregation value was read out at 6 min after the induction. A dose response for each compound was derived.

| SMILES | IC50 |
| --- | --- |
| O=C(NNc1ccnc2ccccc12)c1ccc(Cl)c(Cl)c1 [UC-177617] | 16.2 µM |
| O=C(NNc1ccnc2ccccc12)c1cc2ccccc2[nH]1 [UC-177626] | 10.1 µM |
| O=C(NNc1ccnc2cc(C(F)(F)F)ccc12)c1cc2ccccc2[nH]1 [UC-177627] | 4.3 µM |
| O=C(NNc1ccnc2c(C(F)(F)F)cccc12)c1cc2ccccc2[nH]1 [UC-177628] | 5.8 µM |
| Cc1ccc(C(=O)NNc2ccnc3cc(Cl)ccc23)cc1 [UC-177634] | 6.7 µM |

The next compounds have a lower IC50 than those just listed; values first:

| IC50 | SMILES |
| --- | --- |
| 2.3 µM | O=C(NNc1ccnc2cc(Cl)ccc12)c1cc2ccccc2[nH]1 [UC-177629] |
| 2.3 µM | Cc1ccc(C(=O)NNc2ccnc3c(C(F)(F)F)cccc23)cc1 [UC-177633] |
| 1.5 µM | O=C(NNc1ccnc2c(C(F)(F)F)cccc12)c1ccc(Cl)c(Cl)c1 [UC-177618] |
| 1.4 µM | O=C(NNc1ccnc2cc(Cl)ccc12)c1ccc(Cl)c(Cl)c1 [UC-177619] |
